Values after ≈ are worked out from the molar mass of the structure shown. Read-outs that look alike come from different tables or passages of the source.
How the values were obtained:
[1] = tested on: in vitro rumen fermentations; assay: Volatile fatty acid ratio in in vitro rumen fermentations (Table 6); parameters: species or system steer; conditions: for VFA Molor Ratio C3 /(C2 +nC4): four hours, 38° C.; for % Positive Control: relative to monensin 50 ppm
Experimental: Rumen fluid is obtained from a steer with a fistulated rumen. The steer is maintained on the following ration:
The rumen fluid is immediately strained through a #30 mesh sieve. For each fermentation, 75 ml of the resulting fluid is added to a 250 ml flask containing the following:
1 g of 80%:20% finely ground grain: hay ration;
60 micromoles of each of the 10 essential amino acids (arginine, histidine, leucine, methionine, threonine, valine, lysine, isoleucine, phenylalanine,tryptophan);
Each flask is incubated at 38° C. in a shaking water bath equipped with a gassing hood. Carbon dioxide is continuously passed through the hood. […] The resulting fluid is permitted to sit at room temperature for 30 minutes. The fluid is filtered through a […] Millipore filter and refrigerated until gas-liquid chromatographic analysis for volatile fatty acids.

[2] = tested on: Streptococcus faecium ATCC 8043; assay: Antimicrobial activity, Minimum Inhibitory Concentration (Table 4); type: cell-based; conditions: G (+) cocci
Bacillus sp.E ATCC 27859 = assay: as above; type: cell-based; conditions: G (+) rods
Treponema hyodysenteriae = assay: Minimum Inhibitory Concentration against Treponema hyodysenteriae (Table 7); type: cell-based; conditions: for MIC: Brachyspira hyodysenteriae
Text: The compound was examined for activity against Treponema hyodysenteriae, the etiologic agent of swine dysentery. The results which represent a comparative test following well-known test methods versus a known agent in the treatment and prevention of swine dysentery are set forth in the table below.

[3] = tested on: Sarcina lutea PCI ATCC 9341; assay: Antimicrobial activity, Minimum Inhibitory Concentration (Table 4); type: cell-based; conditions: G (+) cocci
[4] = tested on: Streptomyces cellulosae 097 ATCC 3313; assay: as above; type: cell-based; conditions: G (+) filaments
[5] = tested on: Mycobacterium phlei 78 ATCC 355; assay: as above; type: cell-based; conditions: G (+) filaments
[6] = tested on: Bacillus megaterium 164 ATCC 8011; assay: as above; type: cell-based; conditions: G (+) rods
[7] = tested on: Candida albicans 155 NRRL 477; assay: as above; type: cell-based; conditions: Yeast
[8] = tested on: Staphylococcus aureus 82 ATCC 6538p; assay: as above; type: cell-based; conditions: G (+) cocci
ruminants = assay: Growth promotion / efficiency of feed utilization in ruminants; type: in vivo; conditions: result in words
[9] = tested on: Penicillin digitatum 0184 ATCC 26821; assay: Antimicrobial activity, Minimum Inhibitory Concentration (Table 4); type: cell-based; conditions: Molds
[10] = tested on: Bacillus subtilis NRRL 558; assay: as above; type: cell-based; conditions: G (+) rods
[11] = tested on: Paecilomyces varioti M16 ATCC 26820; assay: as above; type: cell-based; conditions: Molds
[12] = tested on: Saccharomyces cerevisiae 90 NRRL 4226; assay: as above; type: cell-based; conditions: Yeast

**Q.** What does the source list for `CC[C@@]1([C@@H]2O[C@@H]([C@H]3O[C@@](O)(CO)[C@H](C)C[C@@H]3C)C[C@@H]2C)CC[C@H]([C@]2(C)CC[C@]3(C[C@H](O)[C@@H](C)[C@@H]([C@@H](C)[C@@H](OC)[C@H](C)C(=O)O)O3)O2)O1` [Monensin, reference compound]?
**A.** VFA Molor Ratio C3 /(C2 +nC4) ([1]; 50 ppm): 0.392; % Positive Control ([1]; 50 ppm): 100.0%

**Q.** `CO[C@@H]1[C@@H](OC)[C@H](C)[C@@](O)(CC(=O)O)O[C@H]1[C@H](C)[C@H]1O[C@@]2(CC[C@@](C)([C@H]3CC[C@@](C)([C@@H]4O[C@@H]([C@H]5O[C@](C)(O)[C@H](C)C[C@@H]5C)C[C@@H]4O[C@@H]4C[C@H](OC)[C@@H](OC)[C@H](C)O4)O3)O2)C[C@H](O)[C@H]1C.N` [Antibiotic X-14868A] was tested. Which “Minimum Inhibitory Concentration” value [2] did it give?
**A.** Its value is 0.313 µg/mL.

**Q.** What about the “Minimum Inhibitory Concentration” value (Bacillus sp.E ATCC 27859) of the same molecule?
**A.** The value was 0.39 µg/mL.

**Q.** And the “Minimum Inhibitory Concentration, Mean” value (Treponema hyodysenteriae; mean of four strains)?
**A.** The value was 0.05 meg/ml.

**Q.** And the “Minimum Inhibitory Concentration” value (Treponema hyodysenteriae; strain B 169)?
**A.** Its value is 0.05 meg/ml.

**Q.** And the “Minimum Inhibitory Concentration” value (Treponema hyodysenteriae; strain H 140)?
**A.** The value was 0.05 meg/ml.

**Q.** What about the “Minimum Inhibitory Concentration” value (Treponema hyodysenteriae; strain H-78) of the same molecule?
**A.** Its value is 0.05 meg/ml.

**Q.** And the “Minimum Inhibitory Concentration” value (Treponema hyodysenteriae; strain SQ 2)?
**A.** The value was 0.05 meg/ml.

**Q.** What about the “VFA Molor Ratio C3 /(C2 +nC4)” value ([1]; 5 ppm) of the same molecule?
**A.** The value was 0.323.

**Q.** And the “% Positive Control” value ([1]; 5 ppm)?
**A.** The value was 82.5%.

**Q.** What about the “VFA Molor Ratio C3 /(C2 +nC4)” value ([1]; 50 ppm) of the same molecule?
**A.** The value was 0.358.

**Q.** What about the “% Positive Control” value ([1]; 50 ppm) of the same molecule?
**A.** Its value is 91.2%.

**Q.** What about the “Minimum Inhibitory Concentration” value [3] of the same molecule?
**A.** The value was 12.5 µg/mL.

**Q.** What about the “Minimum Inhibitory Concentration” value [4] of the same molecule?
**A.** The value was 25 µg/mL.

**Q.** What about the “Minimum Inhibitory Concentration” value [5] of the same molecule?
**A.** Its value is 12.5 µg/mL.

**Q.** What about the “Minimum Inhibitory Concentration” value [6] of the same molecule?
**A.** Its value is 12.5 µg/mL.

**Q.** What about the “Minimum Inhibitory Concentration” value [7] of the same molecule?
**A.** Its value is 250 µg/mL.

**Q.** What about the “Minimum Inhibitory Concentration” value [8] of the same molecule?
**A.** Its value is 6.25 µg/mL.

**Q.** And the “efficiency of feed utilization in ruminant animals” value (ruminants; oral)?
**A.** Its value is “increases the efficiency of feed utilization in ruminant animals”.

**Q.** What about the “activity as a growth promotant in ruminants” value (ruminants) of the same molecule?
**A.** Its value is “exhibit activity as a growth promotant in ruminants”.

**Q.** What about the “Minimum Inhibitory Concentration” value [9] of the same molecule?
**A.** The value was 1000 µg/mL.

**Q.** What about the “Minimum Inhibitory Concentration” value [10] of the same molecule?
**A.** Its value is 12.5 µg/mL.

**Q.** And the “Minimum Inhibitory Concentration” value [11]?
**A.** Its value is 250 µg/mL.

**Q.** And the “Minimum Inhibitory Concentration” value [12]?
**A.** Its value is 1000 µg/mL.

**Q.** With `CC(C)c1ncc([N+](=O)[O-])n1C` [Ipronidazole, reference compound] as the molecule, how does the MIC (Treponema hyodysenteriae; mean of four strains, read-out: Minimum Inhibitory Concentration, Mean) read?
**A.** Its MIC is 1.1 mg/L (≈ 6.5 µM).

**Q.** And the MIC (Treponema hyodysenteriae; strain B 169, read-out: Minimum Inhibitory Concentration)?
**A.** The MIC was 0.63 mg/L (≈ 3.72 µM).

**Q.** What about the MIC (Treponema hyodysenteriae; strain H 140, read-out: Minimum Inhibitory Concentration) of the same molecule?
**A.** Its MIC is 0.63 mg/L (≈ 3.72 µM).

**Q.** And the MIC (Treponema hyodysenteriae; strain H-78, read-out: Minimum Inhibitory Concentration)?
**A.** Its MIC is 0.63 mg/L (≈ 3.72 µM).

**Q.** And the MIC (Treponema hyodysenteriae; strain SQ 2, read-out: Minimum Inhibitory Concentration)?
**A.** The MIC was 2.5 mg/L (≈ 14.8 µM).

— US4278663A, “Antibiotic X-14868A, B, C and D” (Hoffmann-La Roche Inc., priority 1980, dated 1981)
